Tests used:
[1] = Displacement of [3H]di-o-tolylguanidine from sigma 2 receptor in rat liver membranes after 120 mins by liquid scintillation spectrometry in presence of (+)-pentazocine; type: cell membranes, Membrane
[2] = molecular target: Sigma non-opioid intracellular receptor 1 (Cavia porcellus, UniProt Q60492); assay: Displacement of [3H](+)-pentazocine from sigma 1 receptor in guinea pig brain membranes after 150 mins by liquid scintillation spectrometry; type: cell membranes, Membrane
Rattus norvegicus = species: Rattus norvegicus; assay: Displacement of [3H]di-o-tolylguanidine from sigma 2 receptor in rat liver membranes at 1 uM after 120 mins by liquid scintillation spectrometry in presence of (+)-pentazocine; type: cell membranes; settings: Membrane

Chain of Sigma non-opioid intracellular receptor 1 (Q60492 whole entry): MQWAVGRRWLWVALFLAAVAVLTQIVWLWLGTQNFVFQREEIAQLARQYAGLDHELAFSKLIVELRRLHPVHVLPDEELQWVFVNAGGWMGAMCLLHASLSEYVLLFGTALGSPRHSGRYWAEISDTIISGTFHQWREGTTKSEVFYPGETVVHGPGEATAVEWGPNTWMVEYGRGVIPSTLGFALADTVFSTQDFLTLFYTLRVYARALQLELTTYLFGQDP

Ki [1] [nM] | Ki [2] [nM] | inhibition (Rattus norvegicus) [%] | Structure (SMILES)
1800 | 33 |  | OC1(c2nccs2)CCN(Cc2ccccc2)CC1
107 |  |  | Cc1ccccc1NC(=N)Nc1ccccc1C [DITOLYLGUANIDINE]
 |  | 34 | COC1Cc2c(-c3ccc(C)cc3)csc2C2(CCN(Cc3ccccc3)CC2)O1 (stereo unspecified)
457 | 7 |  | Cc1ccc(-c2cnc(C3(O)CCN(Cc4ccccc4)CC3)s2)cc1
154 | 3.8 |  | Cc1ccc(-c2csc(C3(O)CCN(Cc4ccccc4)CC3)n2)cc1
 |  | 44 | COC1Cc2cc(-c3ccc(C)cc3)sc2C2(CCN(Cc3ccccc3)CC2)O1 (stereo unspecified)
22 |  |  | O=C(CCCN1CCC(O)(c2ccc(Cl)cc2)CC1)c1ccc(F)cc1 [HALOPERIDOL]
 |  | 16 | COC1Cc2ccsc2C2(CCN(Cc3ccccc3)CC2)O1 (stereo unspecified)
